Residues, ends and D or L forms follow the SMILES beside them.
Tests used:
[1] = system: rat brain microvascular endothelial cells (RBMECs); test: Transendothelial electrical resistance (TEER) in the BBB in vitro model; assay type: cell-based; details: RBMEC monolayers
[2] = BBB in vitro model: primary culture of rat brain microvascular endothelial cells (RBMECs) on inserts, astrocyte-conditioned medium in the basal compartment; details: Wistar rat, up to 25 h
[3] = system: rat brain microvascular endothelial cells (RBMECs)
PrP(92–99) = PrP(92–99) (Homo sapiens, UniProt P04156); details: pH 7.4
PrP(106–115) = PrP(106–115) (Homo sapiens, UniProt P04156); details: pH 7.4
Aβ(1–16) = details: 1 equiv of TP; EPR; cited from earlier work
Source text: Although Aβ(1–X) species are the most studied, N-truncated Aβ peptides, such as Aβ(4–X) species (Figure 4A), are highly abundant Aβ isoforms detected in both healthy and AD brains.[58]−[60] Although both peptides bind Cu^2+, their coordination properties and reactivities are completely different.

Aβ(1–40) = biological target: T1, Aβ(1–40) (Homo sapiens, UniProt P05067); details: cited from earlier work
T1 construct: impact the mechanism of Cu^2+-induced aggregation of Aβ(1–40)
Source text: Scheme 1 TP Holds Therapeutic Potential against AD TP is a tetrapeptide with the sequence MDDWAib. The MD sequence binds Cu^2+ with high affinity (A). […] These findings support a therapeu ...

[4] = system: rat brain microvascular endothelial cells (RBMECs); test: Peptide recovery (HPLC) from apical and basal compartments of the BBB in vitro model; details: peptide alone, apical administration; quantified after 8 and 25 h; HPLC-UV

T1 sequence (P05067 672-711 limits assumed): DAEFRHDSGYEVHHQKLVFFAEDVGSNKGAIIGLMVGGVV

CC(C)C[C@H](NC(=O)[C@@H](N)CCCCN)C(=O)N[C@@H](Cc1ccc(O)cc1)C(=O)O [P10] (H-Lys-Leu-Tyr-OH)
Decrease of TEER with respect to control monolayers ([1]; P10 alone, CellZscope continuous measurement): approximately 30%
Decrease of TEER with respect to control monolayers ([1]; P10 together with TP): approximately 30%

NH2-MDDWAib-Am
cleaved bond [2]: Met1-Asp2, major, 3.5 h

NH2-MDDWAib-Am [TP]
Effect on TEER ([1]; TP alone): no effect
Main degradation product in the BBB model [3]: DDWAib
TP degradation in the BBB model [3]: rapidly degraded
TP passage across the BBB model [3]: cannot cross the BBB without P10
Fraction of Cu2+-PrP(92–99) complex in EPR deconvolution (PrP(92–99); 1 equiv of TP): 40%
Fraction of Cu2+-TP complex in EPR deconvolution (PrP(92–99); 1 equiv of TP): 30%
Fraction of ternary TP-Cu2+-PrP(92–99) complex in EPR deconvolution (PrP(92–99); 1 equiv of TP): 30%
Fraction of Cu2+-TP in EPR simulation (PrP(92–99); 2 equiv of TP): 20%
Fraction of ternary TP-Cu2+-PrP(92–99) complex in EPR simulation (PrP(92–99); 2 equiv of TP): 80%
Fraction of Cu2+-PrP(106–115) complex in EPR deconvolution (PrP(106–115); 1 equiv of TP): 30%
Fraction of Cu2+-TP complex in EPR deconvolution (PrP(106–115); 1 equiv of TP): 50%
Fraction of ternary TP-Cu2+-PrP(106–115) complex in EPR deconvolution (PrP(106–115); 1 equiv of TP): 20%
Fraction of Cu2+-TP in EPR simulation (PrP(106–115); 2 equiv of TP): 40%
Fraction of ternary TP-Cu2+-PrP(106–115) complex in EPR simulation (PrP(106–115); 2 equiv of TP): 60%
Removal of Cu2+ from Cu2+-Aβ(1–16) (Aβ(1–16)): removes the metal ion
Effect on Cu2+-induced aggregation of Aβ(1–40) (Aβ(1–40)): impacts the Cu^2+-induced aggregation of Aβ(1–40)
Detection in apical and basal compartments [4]: detected in the apical but not in the basal compartment
